In US20100221763A1, “Specific Acceptors for Transferases to Saccharides and Method for Obtaining and Using Same” (Health Research, Inc, priority 2005, published 2010):
Where “and” joins values, the source holds several entries; their conditions need not be identical. Identical values can stand only once. One block for each molecule: values may come before it.

What was measured:
[1] = target: T1, Rat recombinant α2,3(O)ST (Rattus norvegicus, UniProt Q11205); assay: Sialyltransferase assay with cloned α2,3(O)ST; assay type: biochemical; conditions: for Sialyltransferase activity (%) Cloned α2,3(O)ST: Table I, [14C] sialylated product quantitated on Biogel P2 column; for acceptor efficiency for cloned α2,3(O)ST: 0.75 mM, compared to 3-O-MeGalβ1,4GlcNAcβ1,6(Galβ1,3)GalNAcα-O-Bn
T1 construct: purchased Calbiochem
T1 sequence (Q11205 1-350): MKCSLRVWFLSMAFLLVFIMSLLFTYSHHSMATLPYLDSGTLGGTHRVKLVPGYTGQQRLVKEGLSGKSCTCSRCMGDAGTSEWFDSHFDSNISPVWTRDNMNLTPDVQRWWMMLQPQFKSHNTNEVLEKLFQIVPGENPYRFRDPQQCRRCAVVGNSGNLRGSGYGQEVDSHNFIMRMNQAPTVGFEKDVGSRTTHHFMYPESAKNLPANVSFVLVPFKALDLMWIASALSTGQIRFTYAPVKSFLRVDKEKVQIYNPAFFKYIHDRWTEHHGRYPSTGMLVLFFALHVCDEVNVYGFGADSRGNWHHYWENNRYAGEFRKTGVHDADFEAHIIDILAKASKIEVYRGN

[2] = target: T1, Rat recombinant α2,3(O)ST; assay: Sialyltransferase assay with cloned α2,3(O)ST; assay type: biochemical; conditions: for Km / Vmax: CMP-NeuAc 150 μM, Lineweaver-Burke plot
LNCaP α2,3(O)ST = assay: Sialyltransferase assay with LNCaP cell extract; assay type: biochemical, human
Procedure, shortened: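 LNCaP Triton X-100 extract (5 mg protein/ml; 0.1M Tris-maleate pH6.3) incubated with acceptor (typically 7.5 mM) and CMP-[9-3H]NeuAc (typically 0.2 μCi) in 0.1M Na cacodylate pH6.0, 2 h at 37 °C, in duplicate. Radioactive product separated on Dowex-1-formate, Sep-Pak C18 or Biogel P2 and counted by scintillation; blank without acceptor subtracted.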

[3] = target: T2, Rat recombinant α2,6(N)ST (Rattus norvegicus, UniProt P13721); assay: Sialyltransferase assay with cloned α2,6(N)ST; assay type: biochemical; conditions: Table I; acceptor 7.5 mM; sialylated product quantitated on Biogel P2 column
T2 construct: purchased Calbiochem
T2 sequence (P13721 1-403): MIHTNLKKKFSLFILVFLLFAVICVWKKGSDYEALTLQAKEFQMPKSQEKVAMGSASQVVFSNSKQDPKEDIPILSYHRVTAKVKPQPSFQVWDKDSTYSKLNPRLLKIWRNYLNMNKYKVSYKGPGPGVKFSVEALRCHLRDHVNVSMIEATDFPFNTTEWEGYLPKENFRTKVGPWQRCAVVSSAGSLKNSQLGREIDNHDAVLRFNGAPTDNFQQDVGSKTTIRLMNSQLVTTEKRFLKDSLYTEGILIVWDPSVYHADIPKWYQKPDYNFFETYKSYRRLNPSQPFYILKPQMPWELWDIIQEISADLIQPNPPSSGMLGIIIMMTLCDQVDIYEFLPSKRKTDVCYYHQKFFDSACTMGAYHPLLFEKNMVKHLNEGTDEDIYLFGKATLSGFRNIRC
Description: Rat recombinant α2,3(O)ST, α2,3(N)ST and α2,6(N)ST were purchased from Calbiochem and stored at either −20° C. or −70° C. as recommended by the supplier. […] 10 μl aliquots of the diluted enzymes were used in the assays run in duplicate.
The incubation mixtures run in duplicate contained 0.1M NaCacodylate buffer pH6.0, the acceptor (typically at 7.5 mM, or as indicated in some experiments), CMP-[9 ^3H] NeuAc (typically 0.2 μci; 20 μci/nmol or as indicated in some experiments) and the enzyme in a total volume of 20 μl. The control incubation mixtures contained everything except the acceptor. Incubation was carried out for 2 h at 37° C. The enzymatic transfer of [9-^3H] NeuAc to a typical acceptor was linear for 2 h and less than 30% CMP-[9-^3H] NeuAc was utilized. Chromatography, using either Dowex-1-Formate, Sep-Pak C18 or Biogel P2, was applied to separate radioactive product from un-reacted [9-^3H] NeuAc as described below.
The radioactive products from neutral allyl and methyl glycosides as well as non-glycosides were measured by fractionation on Dowex-1-Formate (Bio-Rad: AG-1X8; 200-400 mesh; format form) as follows: The incubation mixture was diluted with 1.0 ml water and passed through AG-1-formate column (1.0 ml bed volume in a Pasteur pipet which had been washed with 5 ml of 2M Formic acid followed by 10 ml water). The column was washed twice with 1.0 ml water after the entry of the sample and then eluted with 3.0 ml of 0.1M NaCl. The radioactivity present in water and 0.1M NaCl eluates were measured separately using 3a70 scintillation cocktail (Research Products International, Mount Prospect, Ill.) and a Beckman LS6500 scintillation counter. The CPM values were corrected by subtracting the blank CPM. Any radioactivity present in the water eluate (as noticed in the case of some methylglycosides) was added to the corresponding CPM value of 0.1M NaCl eluate. The radioactive products from sulfated and/or sialylated methylglycosides were also measured by the above procedure, only the elution of the AG-1-Formate column was continued further with 3.0 ml of 0.2M NaCl for achieving a complete elution of the radioactive product, a correction being made as before by subtracting the corresponding blank values.
The radioactive products from benzylglycosides and monosialylated benzylglycosides were measured by hydrophobic chromatography on Sep-Pak C18 cartridge (Waters, Milford, Mass.) and eluting the product with 3.0 ml methanol (30). The radioactivity was determined by liquid scintillation as above.
For such work, a Biogel P2 column (Fine Mesh; 1.0×116.0 cm) was used with 0.1M pyridine acetate pH5.4 as the eluent at room temperature. The effluent fractions were monitored for radioactivity and the first peak containing radioactivity was collected, lyophilized to dryness, dissolved in 200 μl of water and stored frozen at −20° C. for thin layer chromatography (TLC) and other experimentation.

[4] = Table II, acceptor 0.75 mM, relative to Galβ1,3GalNAcα-O-Bn
[5] = Table II, acceptor 7.5 mM, relative to Galβ1,3GalNAcα-O-Bn

Sialyltransferase activity (%) Cloned α2,3(O)ST ([1]; acceptor 7.5 mM): 70.3^e,6%
Sialyltransferase activity (%) Cloned α2,3(O)ST ([1]; acceptor 7.5 mM, listed as 3-O-sulfoGalβ1,4GlcNAcβ1,6(Galβ1,3)GalNAcα-O-Bn): 70.3%
Structure (SMILES): CC(=O)N[C@H]1[C@H](OC[C@H]2O[C@H](OCc3ccccc3)[C@H](NC(C)=O)[C@@H](O[C@@H]3O[C@H](CO)[C@H](O)[C@H](O)[C@H]3O)[C@H]2O)O[C@H](CO)[C@@H](O[C@@H]2O[C@H](CO)[C@H](O)[C@H](OS(=O)(=O)O)[C@H]2O)[C@@H]1O [3-O-SulfoGalβ1,4GlcNAcβ1,6(Galβ1,3)GalNAcα-O-Bn]

Sialyltransferase activity (%) Cloned α2,3(O)ST ([1]; acceptor 7.5 mM): 49.4% and 49.4^e,5%
Structure (SMILES): CC(=O)N[C@H]1[C@H](OC[C@H]2O[C@H](OCc3ccccc3)[C@H](NC(C)=O)[C@@H](O[C@@H]3O[C@H](CO)[C@H](O)[C@H](O)[C@H]3O)[C@H]2O)O[C@H](COS(=O)(=O)O)[C@@H](O)[C@@H]1O [6-O-SulfoGlcNAcβ1,6(Galβ1,3)GalNAcα-O-Bn]

Km [2]: 280 µM
Vmax [2]: 1562 pmol/h
acceptor efficiency for cloned α2,3(O)ST [1]: 100%
Structure (SMILES): CC(=O)N[C@H]1[C@H](OC[C@H]2O[C@H](OCc3ccccc3)[C@H](NC(C)=O)[C@@H](O[C@@H]3O[C@H](C)[C@H](O)[C@H](O)[C@H]3O)[C@H]2O)O[C@H](CO)[C@@H](O)[C@@H]1O [D-Fucβ1,3(GlcNAcβ1.6)GalNAcα-O-Bn]

Km [2]: 210 µM
Vmax [2]: 1250 pmol/h
acceptor efficiency for cloned α2,3(O)ST [1]: 100%
Structure (SMILES): CC(=O)N[C@H]1[C@@H](OCc2ccccc2)O[C@H](CO)[C@H](O)[C@@H]1O[C@@H]1O[C@H](C)[C@H](O)[C@H](O)[C@H]1O [D-Fucβ1,3GalNAcα-O-Bn]

Sialyltransferase activity (%) Cloned α2,3(O)ST ([2]; Table I, acceptor 7.5 mM, 100% = 40560 CPM (3-O-MeGalβ1,4GlcNAcβ1,6(Galβ1,3)GalNAcα-O-Bn)): 120.5^1%
Sialyltransferase activity (%) Cloned α2,3(O)ST ([2]; Table IV, compound 7.5 mM, relative to Galβ1,3(GlcNAcβ1,6)GalNAcα-O—Al): 100.0%
Radioactivity incorporated (100% value) Cloned α2,3(O)ST ([1]; Table IV, compound 7.5 mM): 29860 CPM
Structure (SMILES): C=CCO[C@H]1O[C@H](CO[C@@H]2O[C@H](CO)[C@@H](O)[C@H](O)[C@H]2NC(C)=O)[C@H](O)[C@H](O[C@@H]2O[C@H](CO)[C@H](O)[C@H](O)[C@H]2O)[C@H]1NC(C)=O [Galβ1,3(GlcNAcβ1,6)GalNAcα-O—Al]
Sialyltransferase activity (%) LNCaP α2,3(O)ST (LNCaP α2,3(O)ST; Table I, acceptor 7.5 mM, 100% = 30930 CPM (3-O-MeGalβ1,4GlcNAcβ1,6(Galβ1,3)GalNAcα-O-Bn)): 60.4%

Sialyltransferase activity (%) Cloned α2,3(O)ST [2, 4]: 100.0^8%
Sialyltransferase activity (%) Cloned α2,3(O)ST [2, 5]: 100.0^8%
Radioactivity incorporated (100% value) Cloned α2,3(O)ST ([1]; Table II, acceptor 0.75 mM): (42550 CPM)
Radioactivity incorporated (100% value) Cloned α2,3(O)ST ([1]; Table II, acceptor 7.5 mM): (43600 CPM)
Structure (SMILES): CC(=O)N[C@H]1[C@@H](OCc2ccccc2)O[C@H](CO)[C@H](O)[C@@H]1O[C@@H]1O[C@H](CO)[C@H](O)[C@H](O)[C@H]1O [Galβ1,3GalNAcα-O-Bn]
Radioactivity incorporated (100% value) LNCaP α2,3(O)ST (LNCaP α2,3(O)ST; Table II, acceptor 0.75 mM): (30490 CPM)
Sialyltransferase activity (%) LNCaP α2,3(O)ST (LNCaP α2,3(O)ST; [4]): 100.0%
Radioactivity incorporated (100% value) LNCaP α2,3(O)ST (LNCaP α2,3(O)ST; Table II, acceptor 7.5 mM): (30600 CPM)
Sialyltransferase activity (%) LNCaP α2,3(O)ST (LNCaP α2,3(O)ST; [5]): 100.0%

Sialyltransferase activity (%) Cloned α2,3(O)ST ([1]; acceptor 7.5 mM): 69.4% and 69.4^e %
Structure (SMILES): CC(=O)NC1C(OCC2OC(OCc3ccccc3)C(NC(C)=O)C(OC3OC(CO)C(O)C(O)C3O)C2O)OC(COS(=O)(=O)O)C(OC2OC(CO)C(O)C(O)C2O)C1O (stereo not drawn) [Galβ1,4(6-O-Sulfo)GlcNAcβ1,6(Galβ1,3)GalNAcα-O-Bn]

Sialyltransferase activity (%) Cloned α2,6(N)ST [3]: 127.4^e,18%
Sialyltransferase activity (%) Cloned α2,3(O)ST ([1]; acceptor 7.5 mM): 33.1^e,7%
Structure (SMILES): CC(=O)N[C@H]1[C@H](OC[C@H]2O[C@H](OCc3ccccc3)[C@H](NC(C)=O)[C@@H](O[C@@H]3O[C@H](CO)[C@H](O)[C@H](OS(=O)(=O)O)[C@H]3O)[C@H]2O)O[C@H](CO)[C@@H](O[C@@H]2O[C@H](CO)[C@H](O)[C@H](O)[C@H]2O)[C@@H]1O [Galβ1,4GlcNAcβ1,6(3-O-SulfoGalβ1,3)GalNAcα-O-Bn]
